Several values for one entry are separate records, joined by “and”; a condition that tells them apart may be missing. Equal entries are not always repeated.
Legend:
elevated heart rate [1] = test: In vivo dog experiments: heart rate offset after iontophoretic ESA drug with pretreatment (Example A); set-up: species or system labrador dogs; conditions: for Offset Slope Component (0-5) min: 0-5 min after heart rate begins to decline; for Offset Slope Component (5-10) min: 5-10 min after decline begins; for Offset Slope Component (10-30) min: 10-30 min after decline begins; for Change in Heart Rate (peak minus baseline) / Peak Heart Rate: Table II; for Total time (startup) thru offset plateau: in words: Table IV; for Onset Slope: baseline at onset time to peak heart rate; for Decline in heart rate after ESA drug without pretreatment: control runs, hydrochloride; for Offset time: drug delivery stopped until within 20 bpm of baseline; for Offset Slope: drug shut-off to 20 bpm above baseline; for Delay: drug shut-off to start of heart rate decline; for Onset time: start of delivery to start of increase in heart rate; for Time Start Decline: time when elevated heart rate began to decline
elevated heart rate [2] = test: Additional in vivo dog experiments: dermal clearance enhancer pretreatment then arbutamine TDI (Example C); set-up: species or system labrador dogs; conditions: for CHANGE IN HEART RATE / DELAY TIME / TIME TO REACH 10% DECLINE IN HEART RATE / TIME TO REACH 20% DECLINE IN HEART RATE / TIME TO REACH 30% DECLINE IN HEART RATE / TIME TO REACH 40% DECLINE IN HEART RATE / TIME TO REACH 50% DECLINE IN HEART RATE / HALF-LIFE: single dog run, hydrochloride; for HALF-LIFE: heart rate decline
Description: Additional experiments were performed to study the effect of certain compositions on the offset time and dermal clearance in dogs.
In these experiments, the formulation to be tested was applied either topically or by transdermal iontophoresis (TDI) as described below.
Six labrador dogs (20 to 30 kg) were trained to lie quietly on a table. Before each experiment, three ECG electrodes (one lead) were applied on shaved areas of the back (near the front legs) to obtain the heart rate. The outer hind leg area (either right or left) was shaved prior to each experiment, with care taken not to cut or visibly damage the skin. The area was cleaned with soap and water and the skin was then […] using an alcohol swab followed by skin preparation with 3M One-Step-Prep™ tape.
Each vasodilator that was delivered by TDI used a 1.8 cm^2 electrode (Graphic Controls, Buffalo, N.Y.) containing the vasodilator in a gel at the concentrations listed in experimental methods section. In all experiments, an indifferent electrode containing a phosphate-buffered-saline gel was applied to the skin in conjunction with the electrode containing the vasodilator. Each vasodilator tested was applied for 10 minutes using a current of 0.6 mA/cm^2. During this time the heart rate was continuously recorded (at 5 second intervals) with the ESA Research System. The delivery electrodes were then removed, and any excess gel adhering to the skin was gently removed using a tissue.
Each topically applied vasodilator was applied to the skin in a volume of approximately 0.25 ml. The agent was allowed to absorb into the skin, during which time the heart rate was continuously recorded for 10 minutes using the ESA Research System.
To test if heat alone would produce sufficient vasodilation, a 60° C. hot pack was applied to the skin 10 minutes prior to drug delivery, during which time the heat rate was continuously recorded by the ESA System. Once drug delivery electrodes were applied, the heat pack was reheated and placed on top of them for the duration of the study.
The purpose of this treatment was to produce an elevated heart rate response of at least 40 beats-per-minute above baseline lasting for at least 30 minutes.
^1/ The dose (ITCA) was calculated by multiplying the applied current density (mA/cm^2) by the duration of delivery (minutes) and the drug concentration (%) and the area of the electrode (cm^2). […] The units of ITCA are mA.minutes.
The important variables for this analysis are:
1) delay between time when drug administration was stopped and start of decline in heart rate;
2) the time (minutes) to reach successive percent levels (i.e. 10, 20, 30, 40, and 50% decline) from the point of maximum change in heart rate^2.
3) the half-life (minutes) of the heart rate decline obtained from an exponential fit of the offset slope.
A combination of over-the-counter (OTC) and proprietary formulations were selected for comparison. […] Two dogs received each treatment at least one time.
The six dogs are identified in the table as BA, BB, BO, MI, PO and SA, followed by the experimental identification number. These dogs received control (no pretreatment) and five DCE pretreatment regimens.

[3] = Preclinical and clinical studies using intravenous (IV) infusion of an ESA drug; conditions: in vivo, read-out: Pharmacokinetic and pharmacodynamic half-life
Description: Referring to FIG. 3, dog "PO", 0.08 microgram of GP 2-121-3 per kilogram of dog body weight per minute was administered over a 7 minute period. Referring to FIG. 4, dog "BO", 0.10 microgram of GP 2-121-3per kilogram per minute was administered over a 10 minute period.

[4] = Protein binding of arbutamine to albumin in IPPSF perfusate; format: in vitro ADME; conditions: bovine, IPPSF perfusate media

Cl.Oc1ccc(CCCCNCC(O)c2ccc(O)c(O)c2)cc1 (stereo not drawn) [Arbutamine, 1-(3,4-dihydroxy-phenyl)-2-(4-(4-hydroxyphenyl)butylamino)ethanol hydrochloride]
Offset Slope Component (0-5) min (elevated heart rate [1]; listed as 1, hydrochloride): -0.40 beats per minute per minute
Offset Slope Component (0-5) min (elevated heart rate [1]; listed as 2, hydrochloride): -3.70 beats per minute per minute
Offset Slope Component (5-10) min (elevated heart rate [1]; listed as 1, hydrochloride): -0.80 beats per minute per minute
Offset Slope Component (5-10) min (elevated heart rate [1]; listed as 2, hydrochloride): 1.70 beats per minute per minute
Offset Slope Component (10-30) min (elevated heart rate [1]; listed as 1, hydrochloride): -0.02 beats per minute per minute
Offset Slope Component (10-30) min (elevated heart rate [1]; listed as 2, hydrochloride): -0.50 beats per minute per minute
Change in Heart Rate (peak minus baseline) (elevated heart rate [1]; listed as 1, hydrochloride): 56 bpm
Peak Heart Rate (elevated heart rate [1]; listed as 1, hydrochloride): 123 bpm
Change in Heart Rate (peak minus baseline) (elevated heart rate [1]; listed as 2, hydrochloride): 87 bpm
Peak Heart Rate (elevated heart rate [1]; listed as 2, hydrochloride): 160 bpm
Total time (startup) thru offset plateau: in words (elevated heart rate [1]; listed as 1, hydrochloride): Never reached to w/in 20 bpm of baseline
Total time (startup) thru offset plateau: in words (elevated heart rate [1]; listed as 2, hydrochloride): Never reached to w/in 20 bpm pf baseline
Onset Slope (elevated heart rate [1]; listed as 1, hydrochloride): 6.80 beats per minute per minute
Onset Slope (elevated heart rate [1]; listed as 2, hydrochloride): 17.60 beats per minute per minute
Decline in heart rate after ESA drug without pretreatment (elevated heart rate [1]): essentially no reduction in heart rate
Decline in heart rate after ESA drug without pretreatment (elevated heart rate [1]; listed as ESA™ drug): no decline in heart rate during the first hour
Offset time (elevated heart rate [1]; listed as 1, hydrochloride): 29.00 min
Offset time (elevated heart rate [1]; listed as 2, hydrochloride): 39.00 min
Offset Slope (elevated heart rate [1]; listed as 1, hydrochloride): -0.30 beats per minute per minute
Offset Slope (elevated heart rate [1]; listed as 2, hydrochloride): -0.25 beats per minute per minute
Delay (elevated heart rate [1]; listed as 1, hydrochloride): 1.50 min
Delay (elevated heart rate [1]; listed as 2, hydrochloride): 7.00 min
Onset time (elevated heart rate [1]; listed as 1, hydrochloride): 9.00 min
Onset time (elevated heart rate [1]; listed as 2, hydrochloride): 5.00 min
Time Start Decline (elevated heart rate [1]; listed as 1, hydrochloride): 14.00 min
Time Start Decline (elevated heart rate [1]; listed as 2, hydrochloride): 12.50 min
experimental half-life (elevated heart rate [2]): 31 min
heart rate following TDI arbutamine without pretreatment (elevated heart rate [2]; FIGS. 3 and 4): prolonged elevation of heart rate
CHANGE IN HEART RATE, Mean (elevated heart rate [2]; Table VII, mean of runs): 74.68 BPM
DELAY TIME, Mean (elevated heart rate [2]; Table VII, mean of runs): 7.10 min
HALF-LIFE, Mean (elevated heart rate [2]; Table VII, mean of runs): 30.91 min
TIME TO REACH 10% DECLINE IN HEART RATE, Mean (elevated heart rate [2]; Table VII, mean of runs): 10.19 min
TIME TO REACH 20% DECLINE IN HEART RATE, Mean (elevated heart rate [2]; Table VII, mean of runs): 15.98 min
TIME TO REACH 30% DECLINE IN HEART RATE, Mean (elevated heart rate [2]; Table VII, mean of runs): 21.96 min
TIME TO REACH 40% DECLINE IN HEART RATE, Mean (elevated heart rate [2]; Table VII, mean of runs): 27.72 min
TIME TO REACH 50% DECLINE IN HEART RATE, Mean (elevated heart rate [2]; Table VII, mean of runs): 31.37 min
CHANGE IN HEART RATE (elevated heart rate [2]; Table VII, listed as Control): 52.17 BPM and 123.25 BPM and 60.00 BPM and 88.00 BPM and 87.00 BPM and 63.00 BPM and 78.80 BPM and 54.05 BPM and 88.07 BPM and 94.17 BPM and 54.44 BPM and 58.44 BPM and 77.47 BPM and 82.88 BPM and 77.08 BPM
DELAY TIME (elevated heart rate [2]; Table VII, listed as Control): 1.57 min and 1.00 min and 60.00 min and 5.50 min and 7.00 min and 5.10 min and 3.66 min and 2.28 min and 0.00 min and 1.67 min and 3.10 min and 9.20 min and 8.54 min and 1.99 min and 1.44 min
TIME TO REACH 10% DECLINE IN HEART RATE (elevated heart rate [2]; Table VII, listed as Control): 3.20 min and 6.24 min and 60.00 min and 7.07 min and 9.35 min and 8.80 min and 5.53 min and 4.53 min and 2.28 min and 9.66 min and 7.04 min and 10.79 min and 9.50 min and 4.00 min and 4.04 min
TIME TO REACH 20% DECLINE IN HEART RATE (elevated heart rate [2]; Table VII, listed as Control): 4.83 min and 9.16 min and 60.00 min and 98.65 min and 11.70 min and 7.41 min and 6.79 min and 4.55 min and 19.65 min and 16.54 min and 23.38 min and 10.47 min and 5.04 min and 6.82 min
TIME TO REACH 30% DECLINE IN HEART RATE (elevated heart rate [2]; Table VII, listed as Control): 6.46 min and 12.67 min and 60.00 min and 10.21 min and 14.16 min and 9.91 min and 9.23 min and 10.58 min and 29.56 min and 23.02 min and 13.98 min and 11.43 min and 8.54 min and 11.63 min
TIME TO REACH 40% DECLINE IN HEART RATE (elevated heart rate [2]; Table VII, listed as Control): 19.07 min and 17.19 min and 60.00 min and 16.92 min and 18.71 min and 13.84 min and 11.73 min and 22.82 min and 29.50 min and 16.23 min and 12.39 min and 11.49 min and 13.58 min
TIME TO REACH 50% DECLINE IN HEART RATE (elevated heart rate [2]; Table VII, listed as Control): 22.93 min and 21.70 min and 60.00 min and 24.25 min and 24.54 min and 25.97 min and 16.68 min and 30.00 min and 33.10 min and 18.58 min and 113.35 min and 15.32 min and 15.52 min
CHANGE IN HEART RATE (elevated heart rate [2]; Table VII, listed as control): 56.00 BPM
DELAY TIME (elevated heart rate [2]; Table VII, listed as control): 1.50 min
TIME TO REACH 10% DECLINE IN HEART RATE (elevated heart rate [2]; Table VII, listed as control): 11.00 min
TIME TO REACH 20% DECLINE IN HEART RATE (elevated heart rate [2]; Table VII, listed as control): 60.00 min
TIME TO REACH 30% DECLINE IN HEART RATE (elevated heart rate [2]; Table VII, listed as control): 60.00 min
TIME TO REACH 40% DECLINE IN HEART RATE (elevated heart rate [2]; Table VII, listed as control): 60.00 min
TIME TO REACH 50% DECLINE IN HEART RATE (elevated heart rate [2]; Table VII, listed as control): 60.00 min
HALF-LIFE (elevated heart rate [2]; Table VII, listed as Control): 12.53 min and 60.00 min and 20.60 min and 13.72 min and 25.09 min and 52.48 min and 2.42 min and 12.81 min and 9.60 min
HALF-LIFE (elevated heart rate [2]; Table VII, listed as control): 60.00 min
HALF-LIFE [3]: ~7 min
fraction unbound [4]: 0.36
